Test [1] deals with dextran-labeled electroporated cells. As to the kind of experiment: Change in number of dextran-labeled cells after electroporation with peptide. In kind it is cell-based. Conditions: for % change in cell number: dextran-labeled cells counted before and after 18 hrs incubation. On the procedure:
Electroporated cells were treated with fluorescent dextran plus peptide so those cells receiving the peptide could be identified. Typically a very small number of cells successfully incorporate substance during electroporation, making it difficult to identify those receiving peptide. Typically one sees 10-20% incorporation. But, there is good evidence showing that if a cell incorporates one component in buffer, it will incorporate all components. Thus, dextran can be used to identify those cells receiving peptide. After electroporation of cells with fluorescent dextran and the active peptide SEQ ID NO: 12, the dextran-labeled cells were initially counted and then incubated for 18 hrs. After incubation overnight, the dextran-labeled cells were once again counted. The following Tables 4 and 5 show the average change in dextran-labeled cells after the cells are electroporated and the peptide has invaded the cell body. The cell numbers of the SS12 treated peptide seemed to fluctuate after incubation with various concentrations of the SS12 peptide.

The test system of test [2] is actin comet tails in Xenopus egg extracts. Nature of the test: Actin comet-tail formation in cytoplasmic extracts. Format: biochemical, Xenopus laevis. As for the experimental part:
In FIGS. 4A and 4B, in vitro polymerized actin forms comet tail from rhodamine-labeled actin added to Xenopus laevis egg cytoplasmic extract. This was set up according to the protocol in Taunton et al., J Cell Biol. 2000 Feb. 7; 148(3):519-30.
Crude Xenopus egg extract was prepared as described except that cytochalasin D was omitted (Murray and Kirschner, Nature. 1989 May 25; 339(6222):275-80). Cytosol and a heavy membrane fraction were prepared by centrifugation of the crude extract (2 h, 300.000 g max; BECKMAN SW-50 rotor). The viscous glycogen pellet beneath the membrane layer was discarded. Cytosol was further clarified by spinning for 15 min at 541,000 g max (BECKMAN TLA 100.3 rotor). Crude membranes (diluted with one volume of 2 M sucrose) and cytosol were snap frozen in separate aliquots for storage at −80° C. unless otherwise indicated. Clarified cytosol contained a small population of vesicles, but motility assays were far more robust (more comet tails over a longer time period) when cytosol was supplemented with the heavy membrane fraction.
For the standard assay, crude membranes in 1 M sucrose (20-μl aliquot, derived from ˜80 μl crude extract) were washed and resuspended in 14 μl buffer A (50 mM NaCl, 5 mM MgCl2, and 50 mM tris [pH 7.5]). To the membrane suspension were added 35 μl cytosol (derived from ˜80 μl crude extract), 0.3 μl rhodamine-labeled actin (prepared according to Kellogg et al., Development. 1988 August; 103(4):675-86), 3 μl PMA (20 μM stock in 10% DMSO), and 20 μl buffer A at 4° C. 20-μl samples were then warmed to room temperature. After 30-40 min, 2-μl aliquots were viewed with a Nikon E800 microscope to yield the photomicrographs of FIG. 4. Images were acquired with a Princeton Instruments cooled CCD camera (standard rhodamine filter set, Princeton Instruments, Trenton, N.J.) and analyzed with WINVIEW (Visitron System, Puchheim, Germany) or METAMORPH software (Princeton Instruments, Trenton, N.J.). Pixels having an intensity over a threshold value (set to a value greater than the background fluorescence in regions devoid of comet tails) were summed over 10 random fields to quantitate relative actin assembly.
Cytosol was supplemented with a crude membrane fraction, rhodamine-actin, 1 μM PMA and peptide SS2 or SS12 (1 μM). After incubating at room temperature for 20 min, samples were viewed by fluorescence. Actin comet tails formed in Xenopus cytoplasmic extracts where no SS2 or SS12 peptides were added as shown by the photographs A, B and E of FIG. 4.

The next test concerns the target T1, rabbit muscle actin (Oryctolagus cuniculus, UniProt P68135).
T1 construct: Purified rabbit muscle actin (Cytoskeleton Inc., Denver, Mo.); purchased Cytoskeleton Inc; host or cells: rabbit muscle
Nature of the test: In vitro bundling of actin by peptides (co-polymerization, differential centrifugation, SDS gel). In kind it is biochemical. On the procedure: The peptides in Table 2 were added to polymerised actin in vitro at different molar ratios. Centrifugation was used to separate fractions containing F-actin, G-actin and bundled actin, which were then run out on […]. Purified rabbit muscle actin (Cytoskeleton Inc., Denver, Mo.) was depolymerized in Low Salt Buffer [LSB; 5 mM Tris-HCl, pH 8.0, 0.2 mM CaCl2, 0.2 mM ATP, 0.5 mM DTT, mM sucrose) for 1 h on ice and denucleated by centrifugation for 1 h at 100,000×g, 4° C. 13 μM monomeric actin was polymerized in vitro by addition of 1/50 vol. […] The samples were centrifuged for 15 min at 10,000×g at room temperature to pellet “bundled filaments”. The resulting supernatant was centrifuged for 1 h at 100,000×g at room temperature to separate F-actin filaments […]. The fractions were boiled in SDS-sample buffer and analyzed on a 10% SDS-Polyacrylamide gel stained with Coomassie.

Another test addresses actin/pyrene-actin (Oryctolagus cuniculus, UniProt P68135). As to the kind of experiment: Actin/pyrene-actin polymerization fluorescence (nucleating or capping activity). In kind it is biochemical. The following applies: time-dependent fluorescence increase; data not shown. The text has this:
Upon binding to ActA, the Arp2/3 complex has enhanced nucleating activity for actin polymerization (Skoble J, Portnoy D A, Welch M D, Three regions within ActA promote Arp2/3 complex-mediated actin nucleation and Listeria monocytogenes motility; J Cell Biol. […] Aug. 7; 150(3):527-38). We tested a possible involvement of the homologous sequence on nucleating or capping activity by following the time-dependent fluorescence increase upon actin/pyrene-actin polymerization in the presence of the synthetic peptide SS12.

For test [3], the system named is dextran-labeled electroporated cells. Nature of the test: Change in number of dextran-labeled cells after electroporation with peptide. Format: cell-based.
Another test has as its system MCF7 cells. As to the kind of experiment: Cytokinesis in MCF7 cells imaged after addition of peptide. Format: cell-based. Conditions: MCF7 cells electroporated with GFP-actin, peptide in DMSO, imaged up to 4 hours. On the procedure: MCF7 cells were electroporated with GFP-actin and imaged (image not shown). After addition of peptide in DMSO, the MCF7 cells were continuously imaged for up to 4 hours. […] The actin filaments within the cells were observed by fluorescence and had the appearance of spikes. Thus it appears that treatment by the active peptide results in inhibition of cytokinesis and blocks cell division.

Regarding “GIVRKWISRFEVWPYL (SS12 active synthetic peptide)”, in test [1] (compared with SS1 control peptide-treated cells), the “increase in cell population after incubation” value is reported as “did not exhibit the expected increase in cell population”. The “% change in cell number” value in test [1] is −12.5%; in test [1] (peptide concentration 0.2 μM), “+13.21%”; in test [1] (peptide concentration 1.0 μM) it was −1.5%; in test [1] (peptide concentration 10.0 μM), −8.6%. Further, in test [2] (FIGS. 4C, 4D, 4F, concentration not given), the “effect on actin comet tails” value is reported as “complete disruption of the comet tails”. For the same sequence, in test [2] (peptide 1 μM, 1 μM PMA, 20 min at room temperature), the “actin comet tail formation” value is listed as “little or no actin comet tail formation”. The “bundling of actin during in vitro polymerization” value with rabbit muscle actin is on record as “most active”. Besides, the “bundled actin upon inducing polymerization” value with rabbit muscle actin (1:1 molar ratio peptide:actin, polymerization induced (PI +), FIGS. 6C, 6D) is reported as “the bulk of the actin is bundled”. For the same sequence, the “bundled actin with peptide alone” value with rabbit muscle actin (1:1 molar ratio peptide:actin, polymerization not induced, FIGS. 6C, 6D) was “half of the actin bundled”. In addition, the “In vitro actin bundling activity” value with rabbit muscle actin (Tables 2 and 3, peptide co-polymerized with actin in vitro) is on record as “active”. The “free F-actin band” value with rabbit muscle actin (molar ratio 10:1, FIG. 6E) is given as “very small bands”; in the test with rabbit muscle actin (molar ratio 100:1, FIG. 6E lane 6) it was “clearly no band of free F-actin”. In the test with rabbit muscle actin (molar ratio peptide to actin 50, FIG. 6F), the form of actin entry is “all of the actin is in the bundled form”. For the same sequence, in the test with rabbit muscle actin (summary sequence table), the “activity designation of the peptide in the sequence list (active / less active / inactive)” value is reported as “SS12 active”. In the test with actin/pyrene-actin, the “nucleating or capping activity” value is “did not show any nucleating or capping activity”. In addition, in test [3] (compared to cells treated with the inactive peptide), the “number of cells after 24 hours” value was “decrease in the number of cells”. Besides, the “time over which cell division was inhibited” value in test [3] (observation period 36 hours, cells with 24 hr cell cycle) amounted to 36 h. Besides, the “cytokinesis and nuclear division” value in the test with MCF7 cells is reported as “cytokinesis but not nuclear division was blocked”.

Values taken from patent US8039438B2, “Synthetic peptides that cause F-actin bundling and block actin depolymerization” (The Regents of the University of California, priority 2003, dated 2011).
